Laboratory results published in ChEMBL document CHEMBL1140531, “New functional assay of P-glycoprotein activity using Hoechst 33342” (Bioorg Med Chem, 2007).

Assays:
A2780 = experiment: Cytotoxicity against human A2780 cells after 72 hrs by MTT assay; format: functional, cell-based; settings: A2780, 72 h
[1] = Cytotoxicity against human A2780/ADR cells after 72 hrs by MTT assay; format: functional, cell-based
[2] = biological target: T1, ATP-dependent translocase ABCB1 (Homo sapiens, UniProt P08183); experiment: Inhibition of P-glycoprotein expressed in MDCK-MDR1 cells by calcein AM assay; format: cell-based
T1 sequence (P08183 whole entry): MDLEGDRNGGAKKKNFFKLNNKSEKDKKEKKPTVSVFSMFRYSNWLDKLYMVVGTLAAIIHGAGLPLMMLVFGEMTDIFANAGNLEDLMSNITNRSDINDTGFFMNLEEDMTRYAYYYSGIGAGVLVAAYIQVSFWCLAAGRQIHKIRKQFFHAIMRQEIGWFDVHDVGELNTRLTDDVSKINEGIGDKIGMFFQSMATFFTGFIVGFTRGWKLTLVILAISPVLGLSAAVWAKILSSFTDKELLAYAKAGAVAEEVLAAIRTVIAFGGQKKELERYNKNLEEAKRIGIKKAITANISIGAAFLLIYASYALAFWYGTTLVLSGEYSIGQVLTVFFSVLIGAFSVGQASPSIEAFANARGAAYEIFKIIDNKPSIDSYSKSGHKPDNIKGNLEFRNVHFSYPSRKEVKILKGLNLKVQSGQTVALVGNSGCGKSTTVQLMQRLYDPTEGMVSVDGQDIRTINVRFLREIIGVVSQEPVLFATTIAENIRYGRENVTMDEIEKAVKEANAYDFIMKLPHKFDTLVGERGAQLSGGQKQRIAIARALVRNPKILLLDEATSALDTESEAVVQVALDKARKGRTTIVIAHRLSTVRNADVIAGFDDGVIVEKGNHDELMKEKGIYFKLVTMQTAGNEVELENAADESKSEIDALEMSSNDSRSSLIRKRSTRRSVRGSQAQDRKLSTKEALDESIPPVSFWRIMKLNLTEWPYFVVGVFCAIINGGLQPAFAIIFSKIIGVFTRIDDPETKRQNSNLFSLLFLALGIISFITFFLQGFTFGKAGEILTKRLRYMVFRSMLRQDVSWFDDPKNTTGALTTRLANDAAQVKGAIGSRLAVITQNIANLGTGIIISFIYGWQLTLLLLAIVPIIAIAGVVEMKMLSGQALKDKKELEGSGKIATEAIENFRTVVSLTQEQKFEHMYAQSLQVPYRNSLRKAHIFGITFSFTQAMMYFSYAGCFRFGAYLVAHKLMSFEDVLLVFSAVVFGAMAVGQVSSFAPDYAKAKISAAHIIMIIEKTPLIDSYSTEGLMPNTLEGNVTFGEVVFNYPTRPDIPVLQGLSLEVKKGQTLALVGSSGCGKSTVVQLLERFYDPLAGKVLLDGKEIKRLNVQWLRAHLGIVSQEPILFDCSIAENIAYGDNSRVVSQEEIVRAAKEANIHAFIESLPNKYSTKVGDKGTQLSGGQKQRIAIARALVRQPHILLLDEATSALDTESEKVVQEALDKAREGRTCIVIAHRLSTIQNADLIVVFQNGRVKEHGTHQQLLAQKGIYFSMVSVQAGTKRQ

[3] = biological target: T1, ATP-dependent translocase ABCB1; experiment: Inhibition of P-glycoprotein expressed in A2780/ADR cells by calcein AM assay; format: cell-based
[4] = biological target: T1, ATP-dependent translocase ABCB1; experiment: Inhibition of P-glycoprotein by Hoechst assay

| SMILES | Hill coefficient [2] | IC50 [3] [nM] | IC50 [4] [nM] | IC50 (A2780) [nM] | IC50 [1] [nM] |
| --- | --- | --- | --- | --- | --- |
| COC(=O)c1ccccc1-c1c2ccc(=N)cc-2oc2cc(N)ccc12 [RHODAMINE123] | – | – | – | 1910 | 123000 |
| COc1cccc2c1C(=O)c1c(O)c3c(c(O)c1C2=O)C[C@@](O)(C(=O)CO)C[C@@H]3O[C@H]1C[C@H](N)[C@H](O)[C@H](C)O1 [DOXORUBICIN] | – | – | – | 93.3 | 13500 |
| CC(=O)O[C@@]12CO[C@@H]1C[C@H](O)[C@@]1(C)C(=O)[C@H](O)C3=C(C)[C@@H](OC(=O)[C@H](O)[C@@H](NC(=O)OC(C)(C)C)c4ccccc4)C[C@@](O)([C@@H](OC(=O)c4ccccc4)[C@H]21)C3(C)C [DOCETAXEL] | – | – | – | 4.9 | 87.1 |
| CCOc1ccc(-c2nc3cc(-c4nc5cc(N6CCN(C)CC6)ccc5[nH]4)ccc3[nH]2)cc1 | – | – | – | 1910 | 38000 |
| COC(=O)[C@H]1[C@H]2C[C@@H]3c4[nH]c5cc(OC)ccc5c4CCN3C[C@H]2C[C@@H](OC(=O)c2cc(OC)c(OC)c(OC)c2)[C@@H]1OC [RESERPINE] | 1.88 | 3240 | 3020 | – | – |
| COc1cc2c(c(OC)c1OC)-c1ccc(OC)c(=O)cc1[C@@H](NC(C)=O)CC2 [COLCHICINE] | – | – | – | 22.9 | 372 |
| COc1cccc2c1C(=O)c1c(O)c3c(c(O)c1C2=O)C[C@@](O)(C(C)=O)C[C@@H]3O[C@H]1C[C@H](N)[C@H](O)[C@H](C)O1 [DAUNORUBICIN] | – | – | – | 117 | 18600 |
| CC(=O)[C@H]1CC[C@H]2[C@@H]3CCC4=CC(=O)CC[C@]4(C)[C@H]3CC[C@]12C [PROGESTERONE] | 1.31 | – | – | – | – |

Now from value to compound, other results behind:

| Hill coefficient [2] | IC50 [3] [nM] | IC50 [4] [nM] | SMILES | IC50 (A2780) [nM] | IC50 [1] [nM] |
| --- | --- | --- | --- | --- | --- |
| 1.18 | – | – | Cc1ccc(NC(=O)c2ccc(CN3CCN(C)CC3)cc2)cc1Nc1nccc(-c2cccnc2)n1 [IMATINIB] | – | – |
| 2.01 | 851 | 513 | COc1cc2c(cc1OC)CN(CCc1ccc(NC(=O)c3ccccc3NC(=O)c3ccccc3)cc1)CC2 | – | – |
| 1.15 | – | – | COc1ccc([C@@H]2Sc3ccccc3N(CCN(C)C)C(=O)[C@@H]2OC(C)=O)cc1 [DILTIAZEM] | – | – |
| 2.42 | 490 | 355 | O=C(Nc1ccccc1C(=O)Nc1ccc(CCN2CCc3ccccc3C2)cc1)c1cnc2ccccc2c1 | – | – |
| 2.6 | 813 | – | O=C(Nc1ccc(CCN2CCc3ccccc3C2)cc1)Nc1ccccc1NC(=O)c1cnc2ccccc2c1 | – | – |
| 2.44 | – | – | COC(=O)C1=C(C)NC(C)=C(C(=O)OCCN(C)Cc2ccccc2)C1c1cccc([N+](=O)[O-])c1 (stereo not drawn) [NICARDIPINE] | – | – |
| 2.06 | – | – | CC[C@]1(O)C[C@@H]2CN(CCc3c([nH]c4ccccc34)[C@@](C(=O)OC)(c3cc4c(cc3OC)N(C)[C@H]3[C@@](O)(C(=O)OC)[C@H](OC(C)=O)[C@]5(CC)C=CCN6CC[C@]43[C@@H]65)C2)C1 [VINBLASTINE] | 61.7 | 2820 |
| 2.89 | 339 | 331 | COc1ccc(C(=O)Nc2ccccc2C(=O)Nc2ccc(CCN3CCc4cc(OC)c(OC)cc4C3)cc2)cc1OC | – | – |
